Assay results from ChEMBL document CHEMBL1152027, “The prooligonucleotide approach. I: Esterase-mediated reversibility of dithymidine S-alkyl-phosphorothiolates to dithymidine phosphorothioates” (Bioorg Med Chem Lett, 1995).

Experiments:
[1] = Half-life in the culture medium (RPMI 1640+10% fetal calf serum FCS); type: ADME, cell-free, Bos taurus; settings: cattle
[2] = Half-life in the CEM cell extracts; type: ADME, CCRF-CEM; settings: human

Structure (SMILES): Cc1cn(-c2cc(O)c(COP(=O)(Oc3cc(-n4cc(C)c(=O)[nH]c4=O)oc3CO)SCOC(=O)C(C)(C)C)o2)c(=O)[nH]c1=O (stereo unspecified)
- half-life [1]: 6 h
- half-life [2]: 0.667 h

Structure (SMILES): CC(=O)SCCSP(=O)(OCc1oc(-n2cc(C)c(=O)[nH]c2=O)cc1O)Oc1cc(-n2cc(C)c(=O)[nH]c2=O)oc1CO (stereo unspecified)
- half-life [1]: 7 h
- half-life [2]: < 0.0833 h

Structure (SMILES): CC(=O)SCSP(=O)(OCc1oc(-n2cc(C)c(=O)[nH]c2=O)cc1O)Oc1cc(-n2cc(C)c(=O)[nH]c2=O)oc1CO (stereo unspecified)
- half-life [1]: 1 h
- half-life [2]: < 0.0833 h
